Measurements as given in PubChem BioAssay (NCI).
Several values for one entry are separate records, joined by “and”; a condition that tells them apart may be missing. Identical values can stand only once.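 Each compound was tested at five concentrations against cells in 96-well plates for 48 hours. GI50 = concentration required for 50% inhibition of growth. TGI: concentration producing complete growth inhibition.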

Key:
Assay in all cases: DTP human tumour cell line panel, 48 h
T-47D breast = tested on: T-47D breast
SN12C renal = tested on: SN12C renal
LOX IMVI melanoma = tested on: LOX IMVI melanoma
KM12 colon = tested on: KM12 colon
MOLT-4 leukemia = tested on: MOLT-4 leukemia
HS 578T breast = tested on: HS 578T breast
SK-MEL-5 melanoma = tested on: SK-MEL-5 melanoma
K-562 leukemia = tested on: K-562 leukemia
HCT-116 colon = tested on: HCT-116 colon
SR leukemia = tested on: SR leukemia

Structure (SMILES)	GI50 (T-47D breast) [µM]	TGI (T-47D breast) [µM]	GI50 (SN12C renal) [µM]	TGI (SN12C renal) [µM]	GI50 (LOX IMVI melanoma) [µM]	TGI (LOX IMVI melanoma) [µM]	GI50 (KM12 colon)	TGI (KM12 colon) [µM]	GI50 (MOLT-4 leukemia) [µM]	TGI (MOLT-4 leukemia) [µM]	GI50 (HS 578T breast) [µM]	TGI (HS 578T breast) [µM]	GI50 (SK-MEL-5 melanoma) [µM]	TGI (SK-MEL-5 melanoma) [µM]	GI50 (K-562 leukemia) [µM]	TGI (K-562 leukemia) [µM]	GI50 (HCT-116 colon) [µM]	TGI (HCT-116 colon) [µM]	GI50 (SR leukemia) [µM]	TGI (SR leukemia) [µM]
Cc1cc2c(C(C)C)c(O)c(O)c(/C=N/O)c2c(O)c1-c1c(C)cc2c(C(C)C)c(O)c(O)c(/C=N/O)c2c1O	2	8.42	4.34	18.5	1.53	3.47	2.36 µM	8.52	2.23	7.64	2.03	27.4	1.43	3.82	2.07	5.96	2.41	12	3.22	13.5
O=C(NNC1=NS(=O)(=O)c2ccccc2N1c1ccccc1)c1cnccn1	> 100	> 100	> 100	> 100	> 100	> 100	> 100 µM	> 100	> 100	> 100	> 100	> 100	> 100	> 100	> 100	> 100	> 100	> 100	> 100	> 100
COc1ccc(-c2cc(-c3ccc(Cl)cc3)nc(SCCCC(=O)NO)n2)cc1OC	1.88	18.1	0.819	5.64	0.345	1.44	1.34 µM	3.22	0.855	12.5	2.31	11.1	1.03	2.4	–	–	0.433	> 100	0.354	> 100
CC(C)(C)c1cc(Cc2ccc(S(C)(=O)=O)cc2)c(O)c(C(C)(C)C)c1	–	–	–	28.6	–	27.7	–	30.4	–	27.4	–	–	–	30	–	31.6	–	27	–	29.5
CCN(CC)CCOc1ccc(/C(=C(\C)Cc2ccc(OC)cc2)c2ccc(O)cc2)cc1	1.14	3.52	1.53	3.03	1.74	3.17	1.8 µM	3.76	1.5	3.52	1.69	4.22	1.63	3	1.37	3.99	–	–	1.39	3.62
CCOC(=O)C(Cc1ccccc1)n1c(O)c(/C=N/c2ncc(Cc3ccc(Cl)cc3Cl)s2)sc1=S (stereo not given)	2.16	8.73	1.59	> 100	3.44	16.5	1.84 µM	11.6	3.29	> 100	3.62	41.1	1.52	4.13	2.03	> 100	2.03	11.5	3.98	> 100
CC1(C)CCC2(C(=O)O)C(O)CC3(C)C(=CCC4C5(C)CCC(OC6OCC(O)C(O)C6OC6OCC(O)C(O)C6OC6OCC(O)C(OC7OC(CO)C(O)C(O)C7O)C6O)C(C)(C)C5CCC43C)C2C1 (stereo not given)	–	> 100	–	76.5	–	> 100	–	44.1	–	–	–	> 100	–	> 100	–	70.6	–	> 100	–	37.9
Cn1cc(Nc2nccc(-c3ccc4c(c3)CN(C3COC3)CC[C@H]4NC(=O)c3cn(C(C)(C)C)nn3)n2)cn1	47.9	> 100	75.3	> 100	38.5	> 100	72.6 µM	> 100	89.7	> 100	29.7	> 100	26.3	> 100	28	> 100	73.6	> 100	> 100	> 100
NC(N)=NCCCC(Nc1c2ccccc2nc2ccccc12)C(=O)O (stereo not given)	–	–	–	> 100	–	> 100	–	> 100	–	> 100	–	–	–	–	–	> 100	–	> 100	–	> 100
NNC(=O)N/N=C(/CC1(O)C(=O)Nc2ccc(Br)cc21)c1ccccc1 (stereo not given)	–	–	–	> 100	–	35.1	–	87.5	–	44.2	–	–	–	–	–	69.1	–	72.6	–	87.8
COc1cc(C(=O)/C=C/c2cccnc2Nc2ccc(Cl)cc2)cc(OC)c1OC	1.42	3.24	1.46	2.86	1.27	2.59	1.83 µM	3.55	2.55	10.5	3.08	59.2	1.5	2.84	–	–	0.568	1.84	–	–
CCN(CC)CCN1C(=O)c2c(c3c4cccc(Cl)c4n(C4OC(CO)C(OC)C(O)C4O)c3c3[nH]c4c(Cl)cccc4c23)C1=O (stereo not given)	–	2.26	–	–	< 0.0001	–	0.000316 µM and < 0.0231 µM and < 0.01 µM	–	< 0.0001	–	–	1.99	–	–	–	–	< 0.0001	–	< 0.0001	–
CCN(CC)Cc1cc(Nc2ccnc3ccc(OC)cc23)ccc1O	5.69	44.7	3.57	20.6	2.36	6.48	3.21 µM	16	2.98	16.8	9.35	30.6	2.46	6.31	–	–	2.62	15	2.85	7.77
O=C(CCl)N1CCN(c2ccccn2)CC1	–	31.7	–	–	–	–	–	94	–	> 100	–	> 100	–	35	–	> 100	–	> 100	–	> 100
N#Cc1ncc(-c2ccc(C(F)(F)F)cc2)c(NC2CCCCCC2)n1	6	> 100	34.8	> 100	–	–	13.6 µM	> 100	7.42	> 100	22.4	> 100	33.5	> 100	9.03	> 100	5.25	> 100	16.6	> 100
Cc1c(Br)c(Br)c2c3c1nc(N1CCNCC1)n3CCC2	2.35	6.36	1.42	2.85	1.49	2.94	1.72 µM	3.2	–	–	2.45	6.5	1.89	3.42	2.14	5.49	1.73	3.19	1.6	5.24

Structure (SMILES)	GI50 (T-47D breast) [µM]	TGI (T-47D breast) [µM]	GI50 (SN12C renal) [µM]	TGI (SN12C renal) [µM]	GI50 (LOX IMVI melanoma) [µM]	TGI (LOX IMVI melanoma) [µM]	GI50 (KM12 colon)	TGI (KM12 colon) [µM]	GI50 (MOLT-4 leukemia) [µM]	TGI (MOLT-4 leukemia) [µM]	GI50 (HS 578T breast) [µM]	TGI (HS 578T breast) [µM]	GI50 (SK-MEL-5 melanoma) [µM]	TGI (SK-MEL-5 melanoma) [µM]	GI50 (K-562 leukemia) [µM]	TGI (K-562 leukemia) [µM]	GI50 (HCT-116 colon) [µM]	TGI (HCT-116 colon) [µM]	GI50 (SR leukemia) [µM]	TGI (SR leukemia) [µM]
NC(=S)N/N=C/C(O[C@@H](/C=N/NC(N)=S)CO)n1cnc2c(N)ncnc21 (stereo not given in full)	–	–	–	> 100	–	> 100	–	> 100	–	> 100	–	–	–	> 100	–	> 100	–	> 61.9	–	> 100
COc1cc2c3c(n(CCCNCCCCN)c(=O)c2cc1OC)-c1cc2c(cc1C3=O)OCO2	3.11	27.1	0.373	5.89	0.226	10.1	4.58 µM	21.7	–	> 19.6	3.76	16.1	2.95	19.2	4.1	> 100	1.85	15.2	–	–
N=C1C(c2nc3ccccc3c(=O)[nH]2)=C(O)CN1c1cccc(Cl)c1	–	–	19.2	> 100	5.68	> 100	2.01 µM	> 100	4.51	> 100	2.79	12.3	1.26	7.55	1.39	> 100	2.79	> 100	0.302	2.68
Oc1ccc(I)c2cccnc12	–	–	–	> 100	–	46.3	–	> 100	–	> 100	–	–	–	–	–	23.8	–	> 100	–	14.8
CC(=O)CCC[C@@H](C)[C@@H]1O[C@H]([C@@]2(C)CCC(=O)O2)CC2[C@H]1OC(=O)C21CC1 (stereo not given in full)	> 100	> 100	> 100	> 100	77.1	> 100	> 100 µM	> 100	75.5	> 100	–	–	21.7	92.4	> 100	> 100	> 100	> 100	29.4	> 100
CCCCCCCCCCCCCCCC(=O)OCC1OC(OCCCC)[C@H](O[C@@H]2OC(C)C(OC(=O)CCC)C(O)C2O)C(O)C1O (stereo not given in full)	18.7	40	14.1	28.5	20	44	17.1 µM	31.9	–	–	16.2	44.2	17.7	34.2	16.8	31.6	15.4	28.7	–	–
COc1cccc(N2C(=N)/C(=C3\Nc4ccccc4S3)CC2=O)c1	18.9	> 100	> 100	> 100	3.21	> 100	7.48 µM	> 100	2.4	> 100	27.5	> 100	7.78	> 100	3.92	> 100	6.22	> 100	–	–
Oc1c(Cl)cc(Cl)c(Cl)c1Cc1c(O)c(Cl)cc(Cl)c1Cl	2.41	15	0.431	22.2	2.39	11.2	0.953 µM	11.5	1.31	36.1	1.03	51.3	0.712	3.04	–	–	0.41	10.2	1.19	> 100
Cc1cc2c3c(nc4ccccc42)C(=O)c2cccnc2-c3n1	0.749	4.13	0.146	1.82	0.144	0.524	0.142 µM	0.529	0.47	5.69	1.69	> 21.9	0.0808	0.354	0.109	0.345	< 0.0416	0.11	–	–
CC(=O)c1ccc(NC(=O)C(=O)CC(=O)c2sc(-n3nc(-c4ccccc4)cc3-c3ccccc3)nc2C)cc1	–	–	–	> 100	–	> 100	–	> 100	–	> 100	–	–	–	–	–	> 100	–	> 100	–	> 100
CCOC(=O)C1(C)C2=CC=C(O2)C(C)(C)C2=CC=C(O2)C(C)(C)C2=CC=C(O2)C(C)(C)C2=CC=C1O2	–	–	–	> 100	–	> 100	–	> 100	–	> 100	–	–	–	–	–	> 100	–	> 100	–	> 100
CS(=O)(=O)ON1C(=O)c2ccc(N)cc2C1=O	–	–	–	> 100	–	> 100	–	> 100	–	> 69.3	–	–	–	> 100	–	> 100	–	> 100	–	> 68.8
O=C1CC[C@@H](S(=O)(=O)c2ccccc2)[C@H](/C=C/c2ccccc2)O1	–	–	–	> 100	–	> 100	–	> 100	–	> 100	–	–	–	> 100	–	> 100	–	> 100	–	> 100
CCCCNC(=O)CC1=C(C)/C(=C/c2[nH]c(-c3ccc[nH]3)cc2OC)N=C1C	2.41	7.39	–	–	1.56	3.17	1.8 µM	10.6	1.93	9	2.66	9.11	–	–	–	–	–	–	1.87	5.43
COc1ccc(/C=C/C(=O)C(=O)/C=C/c2ccc(OC)c(OC)c2)cc1OC	2.26	> 100	3.06	17.7	1.46	3.21	1.6 µM	3.67	2.06	19.3	2.71	> 100	2.14	6.15	1.07	> 100	0.319	1.33	–	–
